Laboratory results from patent US10669242B2 (priority 2016, dated 2020).
Where a name gives a salt, the structure may show the parent alone.

Tests used:
[1] = target: T1, recombinant glucosyltransferase domain of C. difficile Toxin B/TcdB (Clostridioides difficile, UniProt P18177); assay: biochemical
T1 construct: 6-His (C); purchased R&D Systems 6246-GT

[2] = target: T2, C. difficile full-length toxin TcdA (Clostridioides difficile, UniProt P16154); assay: cell-based
T2 construct: C. difficile full-length toxins (TcdA or TcdB); purchased Enzo Life Sciences BML-G140-0050

[3] = target: T3, C. difficile full-length toxin TcdB (Clostridioides difficile, UniProt P18177); assay: cell-based
T3 construct: C. difficile full-length toxins (TcdA or TcdB); purchased EMD Millipore 616377
T3 sequence (P18177 2-2366 limits assumed): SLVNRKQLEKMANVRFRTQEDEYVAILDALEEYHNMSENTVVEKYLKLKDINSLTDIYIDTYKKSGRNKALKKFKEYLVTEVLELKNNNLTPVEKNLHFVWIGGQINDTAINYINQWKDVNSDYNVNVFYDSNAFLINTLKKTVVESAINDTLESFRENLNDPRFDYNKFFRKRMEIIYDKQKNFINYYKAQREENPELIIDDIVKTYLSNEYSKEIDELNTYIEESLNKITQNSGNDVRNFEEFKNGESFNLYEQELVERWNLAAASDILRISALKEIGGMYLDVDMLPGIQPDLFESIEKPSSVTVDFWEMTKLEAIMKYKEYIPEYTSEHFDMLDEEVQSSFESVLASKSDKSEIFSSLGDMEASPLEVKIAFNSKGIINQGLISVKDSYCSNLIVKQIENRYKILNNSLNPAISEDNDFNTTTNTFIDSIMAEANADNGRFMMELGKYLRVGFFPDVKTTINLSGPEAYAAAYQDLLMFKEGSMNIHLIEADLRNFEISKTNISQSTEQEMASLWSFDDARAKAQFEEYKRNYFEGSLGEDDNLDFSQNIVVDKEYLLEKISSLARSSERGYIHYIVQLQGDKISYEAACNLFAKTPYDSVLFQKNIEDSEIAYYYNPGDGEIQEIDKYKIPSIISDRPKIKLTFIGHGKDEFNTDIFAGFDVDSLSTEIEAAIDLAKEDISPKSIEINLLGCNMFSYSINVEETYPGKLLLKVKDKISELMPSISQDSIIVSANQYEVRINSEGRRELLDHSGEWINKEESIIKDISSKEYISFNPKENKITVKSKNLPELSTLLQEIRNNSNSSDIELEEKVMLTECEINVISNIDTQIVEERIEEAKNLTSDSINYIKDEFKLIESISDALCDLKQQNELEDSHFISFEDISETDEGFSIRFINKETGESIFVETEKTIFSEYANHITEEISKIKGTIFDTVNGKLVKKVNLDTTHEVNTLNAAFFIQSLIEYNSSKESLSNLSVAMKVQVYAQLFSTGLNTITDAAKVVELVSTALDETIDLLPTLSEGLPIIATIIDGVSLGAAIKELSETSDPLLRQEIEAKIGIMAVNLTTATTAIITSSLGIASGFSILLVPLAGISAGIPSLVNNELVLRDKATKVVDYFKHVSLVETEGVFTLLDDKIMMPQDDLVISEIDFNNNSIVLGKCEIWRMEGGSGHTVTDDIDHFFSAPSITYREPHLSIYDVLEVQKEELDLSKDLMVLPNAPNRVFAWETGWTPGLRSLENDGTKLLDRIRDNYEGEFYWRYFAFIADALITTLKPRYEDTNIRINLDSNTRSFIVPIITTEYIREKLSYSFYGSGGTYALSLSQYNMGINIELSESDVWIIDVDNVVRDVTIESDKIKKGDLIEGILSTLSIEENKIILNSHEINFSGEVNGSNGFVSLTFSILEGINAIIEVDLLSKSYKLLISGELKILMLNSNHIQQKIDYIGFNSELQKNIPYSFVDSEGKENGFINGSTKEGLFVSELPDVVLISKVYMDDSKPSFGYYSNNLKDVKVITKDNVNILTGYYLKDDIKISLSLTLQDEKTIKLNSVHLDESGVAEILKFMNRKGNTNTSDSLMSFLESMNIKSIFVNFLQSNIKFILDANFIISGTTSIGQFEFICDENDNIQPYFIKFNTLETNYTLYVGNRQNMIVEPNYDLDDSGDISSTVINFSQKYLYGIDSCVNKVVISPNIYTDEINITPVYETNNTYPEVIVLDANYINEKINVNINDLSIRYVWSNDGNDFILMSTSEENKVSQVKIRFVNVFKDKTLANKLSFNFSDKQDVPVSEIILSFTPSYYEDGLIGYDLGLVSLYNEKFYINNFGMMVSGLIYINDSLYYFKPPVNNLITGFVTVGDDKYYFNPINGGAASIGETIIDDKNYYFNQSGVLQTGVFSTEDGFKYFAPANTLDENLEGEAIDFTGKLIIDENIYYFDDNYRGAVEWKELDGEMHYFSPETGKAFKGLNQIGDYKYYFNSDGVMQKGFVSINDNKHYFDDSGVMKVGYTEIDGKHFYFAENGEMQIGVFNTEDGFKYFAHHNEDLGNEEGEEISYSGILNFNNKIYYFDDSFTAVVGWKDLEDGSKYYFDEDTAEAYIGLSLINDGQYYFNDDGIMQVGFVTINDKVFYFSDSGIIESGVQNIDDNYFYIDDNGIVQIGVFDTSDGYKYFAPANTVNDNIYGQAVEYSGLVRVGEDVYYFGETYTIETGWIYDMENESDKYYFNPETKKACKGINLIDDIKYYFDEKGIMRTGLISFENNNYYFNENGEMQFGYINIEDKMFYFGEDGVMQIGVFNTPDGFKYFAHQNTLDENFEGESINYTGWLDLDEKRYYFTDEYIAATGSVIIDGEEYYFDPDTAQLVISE

[4] = system: C. difficile toxin (TcdA and TcdB, ~1:1); assay: Murine C. difficile toxin model (intrarectal toxin); format: in vivo, C57BL/6 mice; details: murine C. difficile toxin model, PO, 50 mg/kg body weight
Method: In the following studies, we established a murine C. difficile toxin model with modifications from a published murine model (Hirota, Iablokov et al. 2012). Details of the murine C. difficile toxin model are described in the “Experimental Protocols” (below). C. difficile toxins were isolated from a culture of the C. difficile strain VPI 10463. C. difficile toxins consisted of TcdA and TcdB (˜1:1 ratio of TcdA:TcdB). Respective TcdA and TcdB concentrations were determined by enzyme-linked immunosorbant assay (ELISA). In our mouse model, C. difficile toxins were administered intrarectally to evaluate their pathological effects.
We administered C. difficile toxin (12.5 μg/mouse) via intrarectal instillation into female C57BL/6 mice. Four (4) animals were used in each group. Four (4) hours after the toxin administration, the mice were euthanized. The colons were excised from the animals and washed with phosphate buffered saline (PBS). The colon lengths were measured. Excised colon tissues were stored at −70° C. for chemical analysis of interleukin-1β(IL-1β) and myeloperosidase (MPO) in tissues, which are the hallmarks of colon inflammation. Excised colon tissues were also stored at room temperature in 10% neutral buffered formalin for histopathological analysis.
Using the murine C. difficile toxin model (Example 61), we evaluated the efficacy of Example 6a in reducing the C. difficile toxin activity. In this study, the isolated toxin (12.5 μg) was diluted in 50 μl of PBS and mixed with a 50 μl suspension of Example 6a (10 mg/mL) in 1% carboxymethyl cellulose and 0.5% Tween 80 to achieve a fixed dose of […] of Example 6a (0.5 mg in mice weighing ˜20 g) and C. difficile toxin (12.5 μg). Three (3) animals were used in each group.
In this study, we evaluated the efficacy of Example 6a via different routes of administration (i.e., oral (PO) and intraperitoneal (IP) administrations) in the same murine C. difficile toxin model (Example 61). In both PO and IP dosages, Example 6a was prepared as 5 mg/mL solutions in 20% PEG-400, 0.4% carboxymethyl cellulose and 0.2% Tween 80. Example 6a was administered at a final dose of 50 mg/kg body weight. Three (3) mice were used in each group (i.e., vehicle (control), PO and IP).
Using the murine C. difficile toxin model (Example 63), we further tested the efficacy of four (4) additional compounds (i.e., Example 6a, Example 5ae, Example 4cl, and Example 5al) via PO administration. All of the compounds were dosed orally at 50 mg/kg body weight. In three separate studies a total of three (3) to fourteen (14) mice were used in each group.
We evaluated the efficacy of additional compounds in reducing C. difficile toxicity. Using the PO administration (Example 63), we further tested 30 compounds (Table 34). All of the compounds were dosed orally at 50 mg/kg body weight. Three (3) to fourteen (14) animals were used for each compound. % inhibition was determined by the following formula: […]
An overnight culture of C. difficile strain VPI 10463 (American Type Culture Collection) was grown at 37° C. in Brain-Heart Infusion (BHI) broth using the GasPak EZ Anaerobe Pouch System (Becton Dickinson). 2 mL of the culture was added to 28 mL of phosphate buffered saline (PBS) in a gamma-irradiated, 10,000 molecular weight cut-off, 30-70 ml Slide-A-Lyzer G2 dialysis cassette (Pierce). This cassette was submerged in 1 L of BHI broth in a 2 L beaker and incubated under anaerobic conditions for 5 days at 37° C. The culture was then transferred to a 50 mL conical tube and the cassette was washed with 10 mL of PBS. The combined culture and wash were centrifuged at 2,000 g for 20 minutes to pellet the bacteria and the supernatant was filtered through a 0.2 μm syringe filter. The filtrate was then applied to a 20 mL 150 K molecular weight cut-off concentration column (Pierce) and centrifuged at 2,000 g for 15 minutes. Concentrated supernatant was stored at 4° C. […]

T1 sequence (P18177 1-543): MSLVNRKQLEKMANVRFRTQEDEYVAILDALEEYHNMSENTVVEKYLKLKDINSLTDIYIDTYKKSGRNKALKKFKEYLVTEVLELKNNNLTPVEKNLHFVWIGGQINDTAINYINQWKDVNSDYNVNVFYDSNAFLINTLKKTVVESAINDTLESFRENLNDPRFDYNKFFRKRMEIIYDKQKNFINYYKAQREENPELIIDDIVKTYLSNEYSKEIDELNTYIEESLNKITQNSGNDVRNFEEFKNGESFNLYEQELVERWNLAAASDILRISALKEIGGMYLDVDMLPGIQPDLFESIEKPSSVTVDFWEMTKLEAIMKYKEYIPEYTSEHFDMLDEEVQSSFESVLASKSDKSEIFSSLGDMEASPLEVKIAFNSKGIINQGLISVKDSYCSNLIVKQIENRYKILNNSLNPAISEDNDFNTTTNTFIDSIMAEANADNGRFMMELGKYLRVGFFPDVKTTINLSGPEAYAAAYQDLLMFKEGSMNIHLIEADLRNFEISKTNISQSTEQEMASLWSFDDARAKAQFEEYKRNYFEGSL

With O=C(Nc1ccc(F)cn1)c1ccc(CN2C(=O)c3ccc(Cl)cc3NC(=O)[C@H]2Cc2ccccn2)cc1 [Example 4a, (R)-4-((8-Chloro-2,5-dioxo-3-(pyridin-2-ylmethyl)-2,3-dihydro-1H-benzo[e][1,4]diazepin-4(5H)-yl)methyl)-N-(5-fluoropyridin-2-yl)benzamide] the IC50 [1] was < 100 nM, the IC50 [2] was 1000 to 10000 nM and the IC50 [3] was < 100 nM. The “IL-1β (% Inhibition)” value [4] was 30% and the “MPO (% Inhibition)” value [4] was 51%.

With Cc1cnc2c(c1)CCN2C(=O)c1ccc(CN2C(=O)c3ccc(Cl)cc3NC(=O)[C@H]2Cc2ccccn2)cc1Cl [Example 4ad, (R)-8-Chloro-4-(3-chloro-4-(5-methyl-2,3-dihydro-1H-pyrrolo[2,3-b]pyridine-1-carbonyl)benzyl)-3-(pyridin-2-ylmethyl)-3,4-dihydro-1H-benzo[e][1,4]diazepine-2,5-dione] the IC50 [1] was < 100 nM, the IC50 [2] was 100 to 999 nM and the IC50 [3] was < 100 nM. The “IL-1β (% Inhibition)” value [4] was 80% and the “MPO (% Inhibition)” value [4] was 100%.

COc1cc(CN2C(=O)c3ccc(Cl)cc3NC(=O)[C@H]2Cc2ccccn2)ccc1C(=O)Nc1ccc(C(F)(F)F)cn1 [Example 4au, (R)-4-((8-Chloro-2,5-dioxo-3-(pyridin-2-ylmethyl)-2,3-dihydro-1H-benzo[e][1,4]diazepin-4(5H)-yl)methyl)-2-methoxy-N-(5-(trifluoromethyl)pyridin-2-yl)benzamide] was tested, and the IC50 [1] was < 100 nM, the IC50 [2] was > 10000 nM and the IC50 [3] was 100 to 999 nM. For the same molecule, the “IL-1β (% Inhibition)” value [4] was 40% and the “MPO (% Inhibition)” value [4] was 0%.

In the case of COc1ccc(NC(=O)c2ccc(CN3C(=O)c4ccc(Cl)cc4NC(=O)[C@H]3Cc3ccccn3)cc2Cl)nc1 [Example 4by, (R)-2-Chloro-4-((8-chloro-2,5-dioxo-3-(pyridin-2-ylmethyl)-2,3-dihydro-1H-benzo[e][1,4]diazepin-4(5H)-yl)methyl)-N-(5-methoxypyridin-2-yl)benzamide], the IC50 [1] is reported as < 100 nM, the IC50 [2] is reported as 100 to 999 nM and the IC50 [3] is reported as < 100 nM. The “IL-1β (% Inhibition)” value [4] was 46% and the “MPO (% Inhibition)” value [4] was 1%.

For Cc1ccc(NC(=O)c2ccc(CN3C(=O)c4ccc(Cl)cc4NC(=O)[C@H]3Cc3ccccn3)cc2Cl)nc1 [Example 4cb, (R)-2-Chloro-4-((8-chloro-2,5-dioxo-3-(pyridin-2-ylmethyl)-2,3-dihydro-1H-benzo[e][1,4]diazepin-4(5H)-yl)methyl)-N-(5-methylpyridin-2-yl)benzamide], the IC50 [1] was < 100 nM, the IC50 [2] was 100 to 999 nM and the IC50 [3] was < 100 nM. For the same molecule, the “IL-1β (% Inhibition)” value [4] was 74% and the “MPO (% Inhibition)” value [4] was 99%.

COc1cnc(NC(=O)c2ccc(CN3C(=O)c4ccc(Cl)cc4NC(=O)[C@H]3Cc3ccccn3)cc2Cl)cn1 [Example 4ci, (R)-2-Chloro-4-((8-chloro-2,5-dioxo-3-(pyridin-2-ylmethyl)-2,3-dihydro-1H-benzo[e][1,4]diazepin-4(5H)-yl)methyl)-N-(5-methoxypyrazin-2-yl)benzamide] was tested, and the IC50 [1] was < 100 nM, the IC50 [2] was 1000 to 10000 nM and the IC50 [3] was 100 to 999 nM. For the same molecule, the “IL-1β (% Inhibition)” value [4] was 86% and the “MPO (% Inhibition)” value [4] was 19%.

With Cc1ccc(NC(=O)c2ccc(CN3C(=O)c4ccc(Cl)cc4NC(=O)[C@H]3Cc3ccccn3)cc2C)nc1 [Example 4ck, (R)-4-((8-Chloro-2,5-dioxo-3-(pyridin-2-ylmethyl)-2,3-dihydro-1H-benzo[e][1,4]diazepin-4(5H)-yl)methyl)-2-methyl-N-(5-methylpyridin-2-yl)benzamide] the IC50 [1] was < 100 nM, the IC50 [2] was 100 to 999 nM and the IC50 [3] was < 100 nM. The “IL-1β (% Inhibition)” value [4] was 82% and the “MPO (% Inhibition)” value [4] was 79%.

In the case of O=C(c1ccc(CN2C(=O)c3ccc(Cl)cc3NC(=O)[C@H]2Cc2ccccn2)cc1)c1c[nH]c2cccnc12 [Example 32a, 4-(4-(1H-Pyrrolo[3,2-b]pyridine-3-carbonyl)benzyl)-8-chloro-3-(pyridin-2-ylmethyl)-3,4-dihydro-1H-benzo[e][1,4]diazepine-2,5-dione], the IC50 [1] is reported as < 100 nM, the “IL-1β (% Inhibition)” value [4] is reported as 72% and the “MPO (% Inhibition)” value [4] is reported as 76%.

With O=C(c1ccc(CN2C(=O)c3ccc(Cl)cc3NC(=O)[C@H]2Cc2ccccn2)cc1)c1cccn2ccnc12 [Example 34a, (R)-8-Chloro-4-(4-(imidazo[1,2-α]pyridine-8-carbonyl)benzyl)-3-(pyridin-2-ylmethyl)-3,4-dihydro-1H-benzo[e][1,4]diazepine-2,5-dione] the IC50 [1] was < 100 nM, the IC50 [2] was > 10000 nM and the IC50 [3] was 100 to 999 nM.

In the case of O=C1Nc2cc(Cl)ccc2C(=O)N(Cc2ccc(-n3cnc4cccnc4c3=O)cc2)[C@@H]1Cc1ccccn1 [Example 46a, (R)-8-Chloro-4-(4-(4-oxopyrido[3,2-c]pyrimidin-3(4H)-yl)benzyl)-3-(pyridin-2-ylmethyl)-3,4-dihydro-1H-benzo[e][1,4]diazepine-2,5-dione], the IC50 [1] is reported as < 100 nM.

In the case of Cc1nc2cccnc2c(=O)n1-c1ccc(CN2C(=O)c3ccc(Cl)cc3NC(=O)[C@H]2Cc2ccccn2)cc1 [Example 47a, (R)-8-Chloro-4-(4-(2-methyl-4-oxopyrido[3,2-d]pyrimidin-3(4H)-yl)benzyl)-3-(pyridin-2-ylmethyl)-3,4-dihydro-1H-benzo[e][1,4]diazepine-2,5-dione], the IC50 [1] is reported as < 100 nM.

In the case of O=C(Nc1ccc(N2CCNCC2)cn1)c1ccc(CN2C(=O)c3ccc(Cl)cc3NC(=O)[C@H]2Cc2ccccn2)cc1 [Example 48a, (R)-4-((8-Chloro-2,5-dioxo-3-(pyridin-2-ylmethyl)-2,3-dihydro-1H-benzo[e][1,4]diazepin-4(5H)-yl)methyl)-N-(5-(piperazin-1-yl)pyridin-2-yl)benzamide hydrochloride], the IC50 [1] is reported as < 100 nM.

For O=C(Nc1ncc(C(F)(F)F)cn1)c1ccc(CN2C(=O)c3ccc(Cl)cc3NC(=O)[C@H]2Cc2ccccn2)cc1 [Example 49a, (R)-4-((8-Chloro-2,5-dioxo-3-(pyridin-2-ylmethyl)-2,3-dihydro-1H-benzo[e][1,4]diazepin-4(5H)-yl)methyl)-N-(5-(trifluoromethyl)pyrimidin-2-yl)benzamide], the IC50 [1] was < 100 nM.

O=C1Nc2cc(Cl)ccc2C(=O)N(Cc2ccc3c(c2)CN(c2ccccn2)C3=O)[C@@H]1Cc1ccccn1 [Example 49d] gave an IC50 [1] of 100 to 999 nM.

O=C1Nc2cc(Cl)ccc2C(=O)N(Cc2ccc3c(Nc4ccccn4)nccc3c2)[C@@H]1Cc1ccccn1 [Example 49e] was tested, and the IC50 [1] was < 100 nM.

In the case of CC1C(=O)Nc2cc(Cl)ccc2C(=O)N1C1(c2ccc(C(=O)c3cccn4ccnc34)cc2)CC1 (stereo not drawn) [Example 50a, 8-Chloro-4-(1-(4-(imidazo[1,2-α]pyridine-8-carbonyl)phenyl)cyclopropyl)-3-methyl-3,4-dihydro-1H-benzo[e][1,4]diazepine-2,5-dione], the IC50 [1] is reported as 100 to 999 nM.

O=C1Nc2cc(Cl)ccc2C(=O)N(Cc2ccc(C(O)c3ccccn3)cc2)[C@@H]1Cc1ccccn1 (stereo partly drawn) [Example 51a, (3R)-8-Chloro-4-(4-(hydroxy(pyridin-2-yl)methyl)benzyl)-3-(pyridin-2-ylmethyl)-3,4-dihydro-1H-benzo[e][1,4]diazepine-2,5-dione] showed an IC50 [1] of 1000 to 10000 nM.

Cn1cccc(C(=O)c2ccc(CN3C(=O)c4ccc(Cl)cc4NC(=O)[C@H]3Cc3ccccn3)cc2)c1=O [Example 53a] was tested, and the IC50 [1] was 100 to 999 nM.

In the case of C[C@@H]1C(=O)Nc2cc(Cl)ccc2C(=O)N1Cc1ccc(C(=O)Nc2ccc(C(F)(F)F)cn2)c(-c2ccc3c(c2)OCO3)c1 [Example 54a], the IC50 [1] is reported as 1000 to 10000 nM.
